Results as given in patent US11324747B2, “Methods and compositions for managing neuroinflammation and neurodegeneration” (CENTRE FOR CELLULAR AND MOLECULAR PLATFORMS, priority 2016, dated 2022).
“Also recorded” adds a separate entry of the source. Read-outs that look alike come from different tables or passages of the source.

Assays:
[1] = tested on: IL-6; test: LPS induced IL-6 secretion by BV2 in N27-BV2 co-culture (Luminex multiplexing assay); type: cell-based, mice; details: Example 4.3; LPS 1 μg/ml, compound 1 μM, 30 hours
Procedure: (§1) Luminex multiplexing assay was performed to determine the concentration of IL-6 and MCP-1 released. LPS (1 μg/ml) was used as control for IL-6 release or MCP-1 release.

[2] = tested on: N27 cells; test: Hydrogen peroxide induced neurotoxicity in N27 cells (MTS assay); type: cell-based, rat; details: 75 μM hydrogen peroxide, compound 0.1 nM-10 μM, 8 hours
Procedure: Cells were co-treated with 75 μM H2O2 in the presence and absence of compounds for 8 hours. Treatments were made in complete RPMI medium containing 2% FBS.
N27 cells were treated with 75 μM hydrogen peroxide in the presence and absence of compounds PD180970 or AGK2 in a concentration range of 0.1 nM-10 μM for 8 hours in 96 well plates. MTS assay was used to check the cell viability in order to investigate the neuroprotective potential of the compounds. Cells with untreated media was used as blank, and cells with media containing 0.1% DMSO (vehicle or solvent for the compounds) was used as vehicle. Hydrogen peroxide (75 μM) treated N27 cells was used as control for.

[3] = tested on: N27 cells; test: Toxicity to N27 cells induced by conditioned media from LPS activated BV2 cells (MTS assay); type: cell-based, rat; details: Example 3, FIG. 3, LPS 1 μg/ml, 30 hours
[4] = tested on: BV2 cells; test: LPS induced nitrite release in BV2 cells (Griess assay); type: cell-based, mice; details: Example 1; LPS 1 μg/ml, 48 hours, vs LPS alone
Procedure: The immortalized rat mesencephalic dopaminergic cells (N27 cells) were grown in RPMI 1640 medium containing 10% Fetal Bovine Serum (FBS), 2 mM L-glutamine, 50 U Penicillin and 50 μg/ml Streptomycin [22]. Mice microglial cells (BV2 cells) were grown in RPMI 1640 medium containing 10% Heat Inactivated Fetal Bovine Serum (HI-FBS). Cells were maintained in a humidified atmosphere of 5% CO2 at 37° C. until they were 60-70% confluent.
BV2 (Mice Glial Cells) cells were treated with LPS at a concentration of 1 μg/ml in the presence or absence of test compounds PD180970 or AGK-2 at a concentrating ranging from 0.1 nM-[…] and incubated for 48 hours at 37° C. at 5% CO2. Griess assay was used to measure nitrite released in order to investigate the anti-inflammatory potential of the compounds. Untreated BV2 cells was used as blank, 0.1% DMSO in media was used as vehicle. LPS (1 μg/ml) was used as control for nitrite release.

[5] = tested on: N27 cells; details: 30 hours; for neuroprotective effect on N27 cell survival: Example 2.1; for neuroprotective effect on N27 cell survival / neuronal survival as compared to LPS alone / N27 cell survival (protective effect) vs LPS alone / protective effect in N27 cells: LPS 1 μg/ml; for neuronal survival as compared to LPS alone: Example 2.2; for effect of compound alone on the cells, survival, nitrite release or morphology: compound 1 μM without LPS; for protective effect in N27 cells: Example 5
Procedure: The survival of the N27 cells was then measured using MTS Assay.
N27 (Rat Dopaminergic cells) and BV2 (Mice Glial Cells) cells were co-cultured in Corning HTS Transwell Plates in RPMI Complete media supplemented with 10% HI-FBS, N27 in the lower well of the 24 well plates and BV2 in the 0.4 μm porous permeable support inserted on top of the 24 well for 24 hours at 37° C., 5% CO2. BV2 cells were treated with 1 μg/ml LPS in the presence and absence of 10 μM of CCND-01, CCND-02, CCND-03 and CCND-04, and 10 mM of NAC for 30 hours at 37° C., 5% CO2. The survival of N27 cells was then measured by performing MTS Assay and taking readings at 490 nm after 30 mins of incubation.
MTS assay was performed to determine the percentage N27 survival.

[6] = tested on: HEK-Blue™ TLR2 cells; test: nF-κB induced SEAP activity in HEK-Blue TLR2 cells; type: cell-based; details: Pam3CSK4 10 ng/ml, compound 1 nM-100 μM, 12 hours
Procedure: (§2) Hek-Blue TLR-2, TLR-3 and TLR-4 Cells were obtained from InvivoGen (San Diego, Calif.). Culture treatment and assay was performed as per the manufacturers recommended protocol. Cells were treated and incubated for 12 hours, followed by collection of OD values at 620 nm.
(§3) HEK-Blue™ TLR4 cells were treated with LPS and HEK-Blue™ TLR2 were treated with Pam3CSK4 at a concentration of 10 ng/ml for 12 hours in the presence or absence of compounds (PD180970 or AGK-2) at a range of 1 nM-100 μM, and assayed for SEAP activity. LPS ([…]) was used as control for SEAP activity. nF-κB induced SEAP activity was quantified using HEK-Blue™ Detection at 620 nm.

[7] = tested on: N27 cells; test: MPP+ induced neurotoxicity in N27 cells (MTS assay); type: cell-based, rat; details: 300 μM MPP+, compound 0.1 nM-10 μM, 24 hours
Procedure: Cells were co-treated with 300 μM MPP^+ in the presence and absence of compounds for 24 hours. Treatments were made in complete RPMI medium containing 2% FBS.
N27 cells were treated with 300 μM of MPP^+ in the presence and absence of compounds (PD180970 or AGK-2) in a concentration range of 0.1 nM-10 μM and incubated for 24 hours. MPP^+ (300 μM) treated N27 cells was used as control. MTS assay was used to check the cell viability in order to investigate the neuroprotective potential of the compounds. None of the compounds could rescue MPP^+ treated dopaminergic N27 cells.

[8] = tested on: BV2 cells; test: LPS induced nitrite release by BV2 in N27-BV2 co-culture (Griess assay); type: cell-based, mice; details: LPS 1 μg/ml, 30 hours
[9] = tested on: HEK-Blue™ TLR4 cells; test: nF-κB induced SEAP activity in HEK-Blue TLR4 cells; type: cell-based; details: LPS 10 ng/ml, compound 1 nM-100 μM, 12 hours
Procedure: as §2, §3

[10] = tested on: MCP-1; test: LPS induced MCP-1 secretion by BV2 in N27-BV2 co-culture (Luminex multiplexing assay); type: cell-based, mice; details: Example 4.3; LPS 1 μg/ml, compound 1 μM, 30 hours
Procedure: as §1

[11] = target: T1, ERα (Homo sapiens, UniProt P03372); details: at concentrations below 10 μM; cited from earlier work
T1 sequence (P03372 1-595): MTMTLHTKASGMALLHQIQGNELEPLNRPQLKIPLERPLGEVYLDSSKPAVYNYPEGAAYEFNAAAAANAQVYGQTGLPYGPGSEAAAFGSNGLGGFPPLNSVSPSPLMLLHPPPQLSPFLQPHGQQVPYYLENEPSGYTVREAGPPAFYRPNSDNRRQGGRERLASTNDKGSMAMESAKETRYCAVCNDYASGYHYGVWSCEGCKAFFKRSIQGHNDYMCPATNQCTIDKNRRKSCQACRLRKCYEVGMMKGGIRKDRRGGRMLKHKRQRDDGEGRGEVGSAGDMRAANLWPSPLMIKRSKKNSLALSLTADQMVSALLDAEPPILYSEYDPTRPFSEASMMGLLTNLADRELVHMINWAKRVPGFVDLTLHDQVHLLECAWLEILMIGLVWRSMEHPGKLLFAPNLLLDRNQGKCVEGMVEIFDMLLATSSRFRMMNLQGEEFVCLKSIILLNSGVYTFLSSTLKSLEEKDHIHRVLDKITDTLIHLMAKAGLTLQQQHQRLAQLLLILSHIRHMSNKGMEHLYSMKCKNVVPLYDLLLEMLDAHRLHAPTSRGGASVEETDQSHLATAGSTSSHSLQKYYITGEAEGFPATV

[12] = target: T2, ERRγ (Homo sapiens, UniProt P62508); details: at concentrations below 10 μM; cited from earlier work
T2 sequence (P62508 1-458): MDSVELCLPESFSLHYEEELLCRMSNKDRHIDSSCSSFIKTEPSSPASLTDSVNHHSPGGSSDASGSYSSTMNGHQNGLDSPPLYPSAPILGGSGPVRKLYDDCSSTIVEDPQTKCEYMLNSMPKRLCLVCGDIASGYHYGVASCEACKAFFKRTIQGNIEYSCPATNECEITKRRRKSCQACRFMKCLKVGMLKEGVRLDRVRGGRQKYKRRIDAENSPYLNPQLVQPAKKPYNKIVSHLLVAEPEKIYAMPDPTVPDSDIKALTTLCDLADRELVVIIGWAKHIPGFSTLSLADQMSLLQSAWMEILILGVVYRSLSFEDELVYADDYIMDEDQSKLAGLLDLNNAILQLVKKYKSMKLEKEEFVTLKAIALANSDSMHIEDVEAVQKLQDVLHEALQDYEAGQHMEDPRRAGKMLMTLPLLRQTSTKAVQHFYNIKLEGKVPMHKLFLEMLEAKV

| Structure (SMILES) | level of IL-6 released by LPS induced BV2 cells [1] | neuroprotective effect on H2O2 induced toxicity [2] | neuroprotective effect in N27 cells ([3]; compound 10 μM) | levels of nitrite released by LPS treated BV2 cells [4] | neuroprotective effect on N27 cell survival ([5]; compound 10 μM) | neuronal survival as compared to LPS alone ([5]; compound 1 μM) | N27 cell survival (protective effect) vs LPS alone ([5]; Example 4, compound 1 μM) | effect of compound alone on the cells, survival, nitrite release or morphology ([5]; Example 4) | protective effect in N27 cells ([5]; compound 10 μM) | nF-κB induced SEAP activity [6] | neuroprotective effect on MPP+ induced toxicity [7] | level of nitrite released by LPS induced BV2 cells ([8]; Example 2.2, compound 1 μM) | level of nitrite released by LPS induced BV2 cells ([8]; Example 4, compound 1 μM) | nF-κB induced SEAP activity [9] | level of MCP-1 released by LPS induced BV2 cells [10] | other results |
| --- | --- | --- | --- | --- | --- | --- | --- | --- | --- | --- | --- | --- | --- | --- | --- | --- |
| N#C/C(=C\c1ccc(-c2cc(Cl)ccc2Cl)o1)C(=O)Nc1cccc2ncccc12 [AGK-2] | significant reduction in level of IL-6 | no significant neuroprotective effect | significant neuroprotective effect | significant reduction in levels of nitrite | significant neuroprotective effect | significant increase in neuronal survival | significant protective effect; also recorded: significant increase in neuronal survival | no effect | significant protective effect | not in HEK-Blue™ TLR2 cells | no significant neuroprotective effect | significant reduction in level of nitrite | significant decrease in nitrite level; also recorded: significant reduction in level of nitrite | significant inhibitory effect | significant reduction in levels of IL-6 and MCP-1 | – |
| COc1cc(/C=C(\C#N)C(=O)Nc2nnc(C(F)(F)F)s2)ccc1OCc1ccc(C(F)(F)F)cc1C(F)(F)F [CCND-04] | – | – | – | – | – | – | – | – | – | – | – | – | – | – | – | antagonist activity on ERα [11]: no significant antagonist activity; antagonist activity on ERRγ [12]: no significant antagonist activity |
| Cc1ccc(NC(=O)c2ccc(CN3CCN(C)CC3)cc2)cc1Nc1nccc(-c2cccnc2)n1 [Imatinib] | – | – | – | – | – | – | – | – | significant protective effect | – | – | – | – | – | – | – |
| CC(=O)N[C@@H](CS)C(=O)O [NAC, N-acetylcysteine] | – | – | – | – | – | – | – | – | neuroprotective role | – | – | – | – | – | – | neuroprotective effect in N27 cells ([3]; NAC 1 mM): significant neuroprotective effect; neuroprotective effect on N27 cell survival ([5]; NAC 10 mM): inhibit neuronal cell death; neuronal survival as compared to LPS alone ([5]; NAC 10 mM): significant increase in neuronal survival; N27 cell survival (protective effect) vs LPS alone ([5]; Example 4.1, NAC 10 μM): significant protective effect; level of nitrite released by LPS induced BV2 cells ([8]; Example 2.2, NAC 10 mM): significant reduction in level of nitrite |
| Cc1cn(-c2cc(NC(=O)c3ccc(C)c(Nc4nccc(-c5cccnc5)n4)c3)cc(C(F)(F)F)c2)cn1 [Nilotinib] | – | – | – | – | – | – | – | – | significant protective effect | – | – | – | – | – | – | – |
| Cc1cc(Nc2ncc3cc(-c4c(Cl)cccc4Cl)c(=O)n(C)c3n2)ccc1F [PD180970] | significant reduction in level of IL-6 | no significant neuroprotective effect | significant neuroprotective effect | significant reduction in levels of nitrite | significant neuroprotective effect | significant increase in neuronal survival | significant protective effect; also recorded: significant increase in neuronal survival | no effect | significant protective effect | not in HEK-Blue™ TLR2 cells | no significant neuroprotective effect | significant reduction in level of nitrite | significant decrease in nitrite level; also recorded: significant reduction in level of nitrite | significant inhibitory effect | significant reduction in levels of IL-6 and MCP-1 | – |
